According to paper PMC12242654, “Design, Synthesis, and In Vitro Evaluation of the Leishmanicidal Activity of New Aromatic Symmetrical 1,4-Disubstituted 1,2,3-Bistriazoles” (ACS Omega, 2025):
Where two headings read alike, the source gives them in different places.

Legend:
[1] = test system: promastigote forms of L. amazonensis; assay: Leishmanicidal activity against promastigote forms of L. amazonensis (resazurin); format: cell-based, Leishmania amazonensis; conditions: L. amazonensis promastigotes, 72 h, read-out: IC50 ± SD promastigote
Description: Promastigotes of L. amazonensis (MHOM/BR/71973/M2269) were grown on 24-well plates in Schneider’s Drosophila medium (Sigma, USA) supplemented with 10.0% (v/v) heat-inactivated fetal bovine serum and 1.0% penicillin (10000 UI mL^–1)/streptomycin (10.0 mg mL^–1) (Sigma, USA). Cells were harvested in the log phase, suspended in a fresh medium, counted in Neubauer’s chamber, and adjusted to a concentration of 1 × 10^6 cells mL^–1 using 24-well plates. The compounds were added to promastigote cultures (1 × 10^6 cells mL^–1) in the range of 0.10–40.00 μg mL^–1, solubilized in dimethyl sulfoxide (DMSO) (0.6%, v/v in all wells), and incubated at 25 °C. After 72 h of incubation, resazurin was used to detect cellular metabolic activity for the determination of 50.0% inhibitory growth concentration (IC50-promastigote). All tests were performed in triplicate at three different times, and amphotericin B (Sigma) was used as the reference drug.

[2] = Murine cytotoxicity by MTT method; format: cell-based; conditions: mouse; murine peritoneal macrophages, MTT; read-out: murine macrophage CC50 ± SD
Description: (§1) Murine cytotoxicity was assessed by the 3-(4,5-dimethylthiazol-2-yl)-2,5-diphenyltetrazolium bromide (MTT) method using murine peritoneal macrophages to determine the CC50. For this purpose, murine peritoneal macrophages were maintained in RPMI 1640 medium at 37 °C and 5% CO2, arranged in 96-well plates at a ratio of […], where the compounds to be evaluated were added at concentrations of 500, 250, 125, 62.5, 31.25, 15.625, 7.8125, and 3.90 μg mL^–1 and incubated for 24, 48, and 72 h. After incubation, 10 μL of MTT (at a concentration of 5 mg mL^–1) was added per well, with a further 4 h incubation. The cells were lysed with dimethyl sulfoxide (DMSO) and evaluated in a Shimadzu UV/vis spectrophotometer (double beam, model 2550) at 570 nm to determine the CC50 compared to the control without the addition of compounds or drugs. , The optical density obtained was then converted to the percentage of inhibition using eq so that the CC50 could then be determined by regression analysis of the data. %inhibition=[(DOcontrol−DOcompound)/DOcontrol]×100 1
(§2) The percentage of viable cells was calculated considering the cell culture control (medium + cells + DMSO = 0.6% v/v).

[3] = test system: amastigote forms of L. amazonensis; assay: Leishmanicidal activity against intracellular amastigote forms of L. amazonensis in murine peritoneal macrophages; format: cell-based; conditions: Leishmania amazonensis, Peritoneal macrophage; intracellular amastigotes in murine peritoneal macrophages, 72 h, Giemsa; read-out: IC50 ± SD amastigote
Description: To evaluate the leishmanicidal activity in amastigotes, murine peritoneal macrophages were used and maintained in RPMI-1640 medium at 37 °C and 5% CO2 in 24-well plates. After 24 h, the nonadherent macrophages were removed, and these cells were infected with Leishmania (L.) amazonensis promastigotes in the stationary phase of the proliferation curve at a ratio of 10:1. The day after infection, the noninternalized parasites were removed, and the compounds to be evaluated were added at concentrations of 40, 10, 5, and 0.1 μg mL^–1 and incubated for 72 h at 37 °C and 5% CO2; they were then fixed in methanol and stained with 10% Giemsa (MERCK) for subsequent analysis by light microscopy. To assess the effect of the compounds, the number of amastigotes/macrophages and the number of infected macrophages were evaluated. The percentage of infected cells was considered to illustrate the results since these are expressed as CI50-amastigote. ,

[4] = Cytotoxicity on human fibroblast culture (sulforodamine B (SRB) test); format: cell-based; conditions: read-out: human fibroblasts CC50 ± SD
[5] = test system: murine peritoneal macrophages; assay: Murine cytotoxicity by MTT method; format: cell-based
Description: as §1, §2

| Compound | IC50 ([1]; Leishmania amazonensis) | CC50 [2] | IC50 [3] | CC50 [4] | IC50 [1] | CC50 [5] |
| --- | --- | --- | --- | --- | --- | --- |
| O=[N+]([O-])c1ccc(-c2cn(CC(O)Cn3cc(-c4ccc([N+](=O)[O-])cc4)nn3)nn2)cc1 [8b, 1,3-Bis(4-(4-nitrophenyl)-1H-1,2,3-triazol-1-yl)propan-2-ol] | 48.4 ± 1.3 µM | 305 ± 7.84 µM |  |  |  |  |
| Cc1ccc(-c2cn(CC(O)Cn3cc(-c4ccc(C)cc4)nn3)nn2)cc1 [8c, 1,3-Bis(4-(p-tolyl)-1H-1,2,3-triazol-1-yl)propan-2-ol] | 116 ± 2.61 µM | 282.2 ± 1.65 µM |  |  |  |  |
| OC(Cn1cc(C(=NNc2nc3ccccc3s2)c2ccccc2)nn1)Cn1cc(C(=NNc2nc3ccccc3s2)c2ccccc2)nn1 (centres unmarked) [12c, 1,3-Bis(4-((2-(benzo[d]thiazol-2-yl)hydrazineylidene)(phenyl)methyl)-1H-1,2,3-triazol-1-yl)propan-2-ol] | 19.2 ± 1.4 µM | 51.3 ± 8.57 µM |  |  |  |  |
| C[C@@H]1[C@H](O)[C@@H](C)/C=C/C=C/C=C/C=C/C=C/C=C/C=C/[C@H](O[C@@H]2O[C@H](C)[C@@H](O)[C@H](N)[C@@H]2O)C[C@@H]2O[C@](O)(C[C@@H](O)C[C@@H](O)[C@H](O)CC[C@@H](O)C[C@@H](O)CC(=O)O[C@H]1C)C[C@H](O)[C@H]2C(=O)O [amph B, amphotericin B, reference compound] | 1.4 ± 0.04 µM | 27.1 ± 3.19 µM | 1.9 ± 0.07 µM | 22.95 ± 0.1 µM |  |  |
| OC(c1ccccc1)c1cn(Cc2ccccc2)nn1 (centres unmarked) [compound 4] | 42.8 ± 2.66 µM | 322 ± 10.4 µM |  |  |  |  |
| OC(Cn1cc(C(O)c2ccccc2)nn1)Cn1cc(C(O)c2ccccc2)nn1 (centres unmarked) [compound 9, ((2-Hydroxypropane-1,3-diyl)bis(1H-1,2,3-triazole-1,4-diyl))bis(phenylmethanol)] | 62.3 ± 3.29 µM | 144.3 ± 0.94 µM |  |  |  |  |
| O=C(c1ccccc1)c1cn(CC(O)Cn2cc(C(=O)c3ccccc3)nn2)nn1 [compound 10, ((2-Hydroxypropane-1,3-diyl)bis(1H-1,2,3-triazole-1,4-diyl))bis(phenylmethanone)] | 44.1 ± 2.36 µM | 383.9 ± 3.21 µM | 68.4 ± 2.61 µM | 568.1 ± 2.58 µM |  |  |
| N′,N‴-(((2-Hydroxypropane-1,3-diyl)bis(1H-1,2,3-triazole-1,4-diyl))bis(phenylmethaneylylidene))di(benzohydrazide) [12b] |  |  |  |  | 34.46 ± 0.28 µM | 118 ± 17.1 µM |
